Experimental data: publication PMC10714400, “Antimicrobial Peptide–Peptoid Hybrids with and without Membrane Disruption” (ACS Infectious Diseases, 2023)
In brackets after ≈: the same amount, converted by molar mass. Where two headings read alike, the source gives them in different places. Where a SMILES comes first, the peptide text is derived from it. [ ]: non-standard residue; d: D form. Nleu = CC(C)CNCC(=O)O; Nlys = NCCCCNCC(=O)O

How the values were obtained:
PA14 2P4 (pmrB) = test system: PA14 2P4 (pmrB)
Procedure, shortened: (§1)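 MIC read visually after MTT staining: lowest compound concentration preventing visible growth (yellow wells). Inoculum ~5 × 10^5 CFU per well in MH broth; static incubation at 37 °C for ca. 18 h.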

PA14 4.13 (phoQ) = test system: PA14 4.13 (phoQ)
Procedure, shortened: as §1

E. coli W3110 = test system: E. coli W3110
Procedure, shortened: as §1

E. cloacae = test system: E. cloacae
Procedure, shortened: as §1

P. aeruginosa PAO1 = details: PAO1, 4 h
Procedure, shortened: as §1

[1] = test system: ZEM-1A (clinical MDR P. aeruginosa isolate); details: CSV
Procedure, shortened: as §1

S. aureus COL (MRSA) = details: COL, 4 h
Procedure, shortened: as §1

PA14 4.18 (pmrB) = test system: PA14 4.18 (pmrB)
Procedure, shortened: as §1

A. baumannii ATCC19606 = details: ATCC19606, 4 h
Procedure, shortened: (§2)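 MTT added (20–30 min, room temperature); MIC read by eye as lowest concentration inhibiting visible growth (yellow). Polymyxin B positive control from 16 μg/mL.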

K. pneumoniae OXA-48 = test system: K. pneumoniae OXA-48
Procedure, shortened: as §1

[2] = test system: ZEM9A (clinical MDR P. aeruginosa isolate)
Procedure, shortened: as §1

K. pneumoniae NCTC418 = details: NCTC418, 4 h
Procedure, shortened: as §2

[3] = test system: human red blood cells (hRBC); experiment: Minimum hemolytic concentration (MHC); format: cell-based
Text: We also measured minimal hemolysis concentrations (MHC) on human red blood cells by serial 2-fold dilution as an indication of toxicity against eukaryotic cells (Table 1).

B. cenocepacia = details: pH 7.4
Procedure, shortened: as §1

S. epidermis = test system: S. epidermis
Procedure, shortened: as §1

S. maltophilia = test system: S. maltophilia
Procedure, shortened: as §1

P. aeruginosa PA14 = test system: P. aeruginosa PA14
Procedure, shortened: as §1

S. aureus Newman = details: Newman
Procedure, shortened: as §1

Compound: CC(C)C[C@H](NC(=O)[C@H](CC(C)C)NC(=O)[C@H](CC(C)C)NC(=O)[C@H](CCCCN)NC(=O)[C@H](CC(C)C)NC(=O)[C@H](CC(C)C)NC(=O)CN(CCCCN)C(=O)CN(CC(C)C)C(=O)CN(CC(C)C)C(=O)CN(CCCCN)C(=O)CNCCCCN)C(N)=O [EB5, kkllkLLKLLL] (H-[Nlys][Nlys][Nleu][Nleu][Nlys]LLKLLL-NH2)
- MIC P. aeruginosa PA14 2P4, […] MH at pH 8.5 (PA14 2P4 (pmrB); CSV, […] MH at pH 8.5): 2 ug/mL
- MIC P. aeruginosa PA14 2P4, full MH at pH 7.4 (PA14 2P4 (pmrB); CSV, full MH at pH 7.4): >32 ug/mL
- MIC PA14 2P4 (pmrB) (PA14 2P4 (pmrB); MH pH 7.4, 16–20 h at 37 °C): >32 µg/mL
- MIC P. aeruginosa PA14 2P4 (PA14 2P4 (pmrB); Table S3, […] MH at pH 8.5): 2 µg/mL (≈ 1.51 µM)
- MIC P. aeruginosa PA14 4.13, […] MH at pH 8.5 (PA14 4.13 (phoQ); CSV, […] MH at pH 8.5): 2 ug/mL
- MIC P. aeruginosa PA14 4.13, full MH at pH 7.4 (PA14 4.13 (phoQ); CSV, full MH at pH 7.4): 8 ug/mL
- MIC PA14 4.13 (phoQ) (PA14 4.13 (phoQ); MH pH 7.4, 16–20 h at 37 °C): 8 µg/mL (≈ 6.05 µM)
- MIC P. aeruginosa PA14 4.13 (PA14 4.13 (phoQ); Table S3, […] MH at pH 8.5): 2 µg/mL (≈ 1.51 µM)
- MIC E. coli W3110, […] MH at pH 7.4 (E. coli W3110; CSV, […] MH at pH 7.4): 2 ug/mL
- MIC E. coli W3110, […] MH at pH 8.5 (E. coli W3110; CSV, […] MH at pH 8.5): 2 ug/mL
- MIC E. coli W3110, full MH at pH 7.4 (E. coli W3110; CSV, full MH at pH 7.4): 2 ug/mL
- MIC E. coli W3110, full MH at pH 8.5 (E. coli W3110; CSV, full MH at pH 8.5): >32 ug/mL
- MIC E. coli W3110 […] (E. coli W3110; diluted MH ([…] MH, pH 8.5) per Table 1 footnote b, 16–20 h at 37 °C): 2 µg/mL (≈ 1.51 µM)
- MIC E. cloacae, full MH at pH 7.4 (E. cloacae; 4 h, pH 7.4): 12 ug/mL
- MIC E. cloacae (E. cloacae; 4 h, pH 8.5): 4 µg/mL (≈ 3.03 µM)
- MIC E. cloacae (E. cloacae; pH 7.4): 8 to 16 µg/mL
- MIC P. aeruginosa PAO1, full MH at pH 7.4 (P. aeruginosa PAO1; pH 7.4): 4 ug/mL
- MIC P. aeruginosa PAO1, full MH at pH 8.5 (P. aeruginosa PAO1; pH 8.5): >32 ug/mL
- MIC P. aeruginosa ZEM-1A, […] MH at pH 8.5 ([1]; […] MH at pH 8.5): 2 ug/mL
- MIC P. aeruginosa ZEM-1A, full MH at pH 7.4 ([1]; full MH at pH 7.4): 2 ug/mL
- MIC S. aureus COL (MRSA), full MH at pH 7.4 (S. aureus COL (MRSA); pH 7.4): 8 ug/mL
- MIC S. aureus COL (MRSA), full MH at pH 8.5 (S. aureus COL (MRSA); pH 8.5): >32 ug/mL
- MIC P. aeruginosa PA14 4.18, […] MH at pH 8.5 (PA14 4.18 (pmrB); CSV, […] MH at pH 8.5): 2 ug/mL
- MIC P. aeruginosa PA14 4.18, full MH at pH 7.4 (PA14 4.18 (pmrB); CSV, full MH at pH 7.4): 32 ug/mL
- MIC PA14 4.18 (pmrB) (PA14 4.18 (pmrB); MH pH 7.4, 16–20 h at 37 °C): 32 µg/mL (≈ 24.2 µM)
- MIC P. aeruginosa PA14 4.18 (PA14 4.18 (pmrB); Table S3, […] MH at pH 8.5): 2 µg/mL (≈ 1.51 µM)
- MIC A. baumannii ATCC19606, full MH at pH 7.4 (A. baumannii ATCC19606; pH 7.4): 2 ug/mL
- MIC A. baumannii ATCC19606, full MH at pH 8.5 (A. baumannii ATCC19606; pH 8.5): >32 ug/mL
- MIC K. pneumoniae OXA-48, […] MH at pH 8.5 (K. pneumoniae OXA-48; CSV, […] MH at pH 8.5): 8 ug/mL
- MIC K. pneumoniae OXA-48, full MH at pH 7.4 (K. pneumoniae OXA-48; CSV, full MH at pH 7.4): >32 ug/mL
- MIC K. pneumoniae OXA-48 (K. pneumoniae OXA-48; MH pH 7.4, 16–20 h at 37 °C): 32 to 64 µg/mL
- MIC K. pneumoniae OXA-48 (K. pneumoniae OXA-48; Table S3, […] MH at pH 8.5): 8 µg/mL (≈ 6.05 µM)
- MIC P. aeruginosa ZEM9A, […] MH at pH 8.5 ([2]; CSV, […] MH at pH 8.5): 2 ug/mL
- MIC P. aeruginosa ZEM9A, full MH at pH 7.4 ([2]; CSV, full MH at pH 7.4): 8 ug/mL
- MIC ZEM9A ([2]; MH pH 7.4, 16–20 h at 37 °C): 8 µg/mL (≈ 6.05 µM)
- MIC P. aeruginosa ZEM9A ([2]; Table S3, […] MH at pH 8.5): 2 µg/mL (≈ 1.51 µM)
- MIC K. pneumoniae NCTC418, full MH at pH 7.4 (K. pneumoniae NCTC418; pH 7.4): >32 ug/mL
- MIC K. pneumoniae NCTC418, full MH at pH 8.5 (K. pneumoniae NCTC418; pH 8.5): 24 ug/mL
- MIC K. pneumoniae NCTC418 Full MH 8.5 (K. pneumoniae NCTC418; pH 8.5): 16 to 32 µg/mL
- MHC [3]: 1000 µg/mL
- MHC (hemolysis) ([3]; red cells of human): 250 to 1000 µg/mL
- MIC B. cenocepacia, full MH at pH 7.4 (B. cenocepacia; 4 h): >32 ug/mL
- MIC B. cenocepacia (B. cenocepacia): >32 µg/mL
- MIC S. epidermis, full MH at pH 7.4 (S. epidermis; 4 h, pH 7.4): 6 ug/mL
- MIC S. epidermis (S. epidermis; 4 h, pH 8.5): 2 µg/mL (≈ 1.51 µM)
- MIC S. epidermis (S. epidermis; pH 7.4): 4 to 8 µg/mL
- MIC S. maltophilia, full MH at pH 7.4 (S. maltophilia; 4 h, pH 7.4): 8 ug/mL
- MIC S. maltophilia (S. maltophilia; 4 h, pH 8.5): 4 to 8 µg/mL
- MIC S. maltophilia (S. maltophilia; pH 7.4): 8 µg/mL (≈ 6.05 µM)
- MIC P. aeruginosa PA14, full MH at pH 7.4 (P. aeruginosa PA14; PA14, 4 h, pH 7.4): 6 ug/mL
- MIC P. aeruginosa PA14 (P. aeruginosa PA14; PA14, pH 7.4): 4 to 8 µg/mL
- MIC P. aeruginosa PA14 (P. aeruginosa PA14; PA14, pH 8.5): 2 µg/mL (≈ 1.51 µM)
- MIC S. aureus Newman, full MH at pH 7.4 (S. aureus Newman; 4 h, pH 7.4): >32 ug/mL
- MIC S. aureus Newman (S. aureus Newman; 4 h, pH 8.5): 2 µg/mL (≈ 1.51 µM)
- MIC S. aureus Newman (S. aureus Newman; pH 7.4): >32 µg/mL
